Results as given in patent US7645720B2, “Extreme environment surfactant compositions comprising hydrolysis resistant organomodified disiloxane surfactants” (Momentive Performance Materials Inc., priority 2005, dated 2010).

Assays:
Assay type in all cases: physicochemical
[1] = Spreading of 10 μL droplet on polyacetate film; settings: 30 seconds
Experimental: (§1) Spreading was determined by applying a 10 μL droplet, of surfactant solution to polyacetate film (USI, “Crystal Clear Write on Film”) and measuring the spread diameter (mm) after 30 seconds, at a relative humidity between 50 and 70% (at 22 to 25° C.). The solution was applied with an automatic pipette to provide droplets of reproducible volume. Deionized water that was further purified with a Millipore filtration system was used to prepare the surfactant solutions.

[2] = Surface tension (Kruss surface tensiometer); settings: 0.1 wt % in 0.005M NaCl water
Experimental: Surface tension was measured using a Kruss surface tensiometer, with a sand blasted platinum blade as the sensor. Solutions of the various components were prepared at 0.1 wt % in 0.005M NaCl water (Deionized), as an equilibrium aid.

[3] = Spreading properties vs time at set pH (resistance to hydrolysis); settings: 0.4 wt %
Experimental: as §1
Therefore solutions of the organomodified disiloxane surfactants of the present invention, as well as comparative surfactants were prepared at desired use levels and pH. Spreading was determined as a function of time to illustrate resistance to hydrolysis. […]
Solutions (0.4 wt %) of the surfactants were prepared at pH 4 and pH 5 and spreading properties were observed over time. The test conditions are outlined in Example 8.

[4] = Hydrolytic stability by HPLC
[5] = Hydrolytic stability by HPLC; settings: 0.5 wt %
Experimental: Hydrolytic stability was determined for representative compositions of the present invention using HPLC. Solutions of the various compositions were prepared at 0.5 wt % over a pH range from pH 4 to pH 12, and monitored by HPLC for decomposition as a function of time.
• Detector: ELSD/LTA (Evaporative Light Scattering with Low Temperature Adapter • Conditions: 30° C., 1.95 SLPM N2 • Column: Phenomenex LUNA C18 end cap, 5 micron, 75×4.6 mm • Flow Rate: 1.0 mL/min. • Inj. Volume: 10 microliters • Sample: 0.050 g/mL in methanol

Structure (SMILES): C[Si](C)(C)O[Si](C)(C)CCCOCCOCCOCCOCCOCCOCCOCCOCCOCCOCCOCCO [Comparative C, reference compound]
- Spread Diameter ([1]; 0.1%): 6 mm
- Spread Diameter ([1]; 0.2%): 8 mm
- Spread Diameter ([1]; 0.4%): 9 mm
- Surface Tension [2]: 24.1 mN/m

Structure (SMILES): C[Si](C)(C)CC[Si](C)(C)O[Si](C)(C)CCCOCCOCCOCCOCCOCCOCCOCCOCCOCCOCCOCCO [Product 11]
- Spreading Diameter ([3]; pH 4, 0 h): 16 mm
- Spreading Diameter ([3]; pH 4, 1 mo): 10 mm
- Spreading Diameter ([3]; pH 4, 1 wk): 8 mm
- Spreading Diameter ([3]; pH 4, 2 wk): 8 mm
- Spreading Diameter ([3]; pH 4, 3 wk): 12 mm
- Spreading Diameter ([3]; pH 4, 1 h): 23 mm
- Spreading Diameter ([3]; pH 4, 4 h): 23 mm
- Spreading Diameter ([3]; pH 4, 24 h): 44 mm
- Spreading Diameter ([3]; pH 4, 48 h): 38 mm
- Spreading Diameter ([3]; pH 4, 72 h): 28 mm
- Spreading Diameter ([3]; pH 5, 0 h): 26 mm
- Spreading Diameter ([3]; pH 5, 1 mo): 42 mm
- Spreading Diameter ([3]; pH 5, 1 wk): 29 mm
- Spreading Diameter ([3]; pH 5, 2 wk): 33 mm
- Spreading Diameter ([3]; pH 5, 3 wk): 33 mm
- Spreading Diameter ([3]; pH 5, 1 h): 23 mm
- Spreading Diameter ([3]; pH 5, 24 h): 24 mm
- Spreading Diameter ([3]; pH 5, 48 h): 32 mm
- Spreading Diameter ([3]; pH 5, 72 h): 35 mm
- Spread Diameter ([1]; 0.1%): 20 mm
- Spread Diameter ([1]; 0.2%): 21 mm
- Spread Diameter ([1]; 0.4%): 32 mm
- Stability: % Siloxane Surfactant Remaining ([4]; pH 4, 3 wk, Stock Solution 2.5 wt %): 79%
- Stability: % Siloxane Surfactant Remaining ([4]; pH 4, 6 wk, Stock Solution 2.5 wt %): 56%
- Stability: % Siloxane Surfactant Remaining ([4]; pH 4, 11 wk, Stock Solution 2.5 wt %): 10%
- Stability: % Siloxane Surfactant Remaining ([4]; pH 4, 96 h, Stock Solution 2.5 wt %): 100%
- Stability: % Siloxane Surfactant Remaining ([4]; pH 5, 3 wk, Stock Solution 2.5 wt %): 100%
- Stability: % Siloxane Surfactant Remaining ([4]; pH 5, 6 wk, Stock Solution 2.5 wt %): 100%
- Stability: % Siloxane Surfactant Remaining ([4]; pH 5, 11 wk, Stock Solution 2.5 wt %): 100%
- Stability: % Siloxane Surfactant Remaining ([4]; pH 5, 96 h, Stock Solution 2.5 wt %): 100%
- Stability: % Siloxane Surfactant Remaining ([4]; pH 7, 3 wk, Stock Solution 2.5 wt %): 100%
- Stability: % Siloxane Surfactant Remaining ([4]; pH 7, 6 wk, Stock Solution 2.5 wt %): 100%
- Stability: % Siloxane Surfactant Remaining ([4]; pH 7, 11 wk, Stock Solution 2.5 wt %): 100%
- Stability: % Siloxane Surfactant Remaining ([4]; pH 7, 96 h, Stock Solution 2.5 wt %): 100%
- Stability: % Siloxane Surfactant Remaining ([4]; pH 9, 3 wk, Stock Solution 2.5 wt %): 100%
- Stability: % Siloxane Surfactant Remaining ([4]; pH 9, 6 wk, Stock Solution 2.5 wt %): 100%
- Stability: % Siloxane Surfactant Remaining ([4]; pH 9, 11 wk, Stock Solution 2.5 wt %): 100%
- Stability: % Siloxane Surfactant Remaining ([4]; pH 9, 96 h, Stock Solution 2.5 wt %): 100%
- Stability: % Siloxane Surfactant Remaining ([4]; pH 10, 3 wk, Stock Solution 2.5 wt %): 100%
- Stability: % Siloxane Surfactant Remaining ([4]; pH 10, 6 wk, Stock Solution 2.5 wt %): 100%
- Stability: % Siloxane Surfactant Remaining ([4]; pH 10, 11 wk, Stock Solution 2.5 wt %): 100%
- Stability: % Siloxane Surfactant Remaining ([4]; pH 10, 96 h, Stock Solution 2.5 wt %): 100%
- Surface Tension [2]: 24.5 mN/m

Structure (SMILES): CC(C)C[Si](C)(C)O[Si](C)(C)CCCOCCOCCOCCOCCOCCOCCOCCOCCOCCOCCOCCO [Product 7]
- Spread Diameter ([1]; 0.1%, listed as 7): 14 mm
- Spread Diameter ([1]; 0.2%, listed as 7): 15 mm
- Spread Diameter ([1]; 0.4%, listed as 7): 25 mm
- Surface Tension ([2]; listed as 7): 23.9 mN/m

Structure (SMILES): CC(C)(C)CC(C)(C)c1ccc(OCCOCCOCCOCCOCCOCCOCCOCCOCCOCCO)cc1 [OPE, Octylphenolethoxylate]
- Spread Diameter ([1]; 0.4%): 10 mm
- Surface Tension [2]: 31.8 mN/m

Structure (SMILES): CC(C)C[Si](C)(C)O[Si](C)(C)CCCOCCOCCOCCOCCOCCOCCOCCOCCOCCOCCOCCO [Product 4]
- Spread Diameter ([1]; 0.1%, listed as 4): 8 mm
- Spread Diameter ([1]; 0.2%, listed as 4): 9 mm
- Spread Diameter ([1]; 0.4%, listed as 4): 10 mm
- Surface Tension ([2]; listed as 4): 24.1 mN/m

Structure (SMILES): C[Si](C)(CCCOCCOCCOCCOCCOCCOCCOCCOCCOCCOCCOCCO)O[Si](C)(C)C1CC2CC1C1C=CCC21 (stereo not shown) [Comparative D, reference compound]
- Spread Diameter ([1]; 0.1%): 7 mm
- Spread Diameter ([1]; 0.4%): 6 mm
- Stability: % Siloxane Surfactant Remaining ([4]; pH 4, 48 h, 0.5 wt %): 82%
- Stability: % Siloxane Surfactant Remaining ([4]; pH 4, 9 days, 0.5 wt %): 44%
- Stability: % Siloxane Surfactant Remaining ([4]; pH 7, 9 days, 0.5 wt %): 99%
- Stability: % Siloxane Surfactant Remaining ([4]; pH 9, 9 days, 0.5 wt %): 99%
- Stability: % Siloxane Surfactant Remaining ([4]; pH 10, 48 h, 0.5 wt %): >95%
- Stability: % Siloxane Surfactant Remaining ([4]; pH 10, 9 days, 0.5 wt %): 99%
- Stability: % Siloxane Surfactant Remaining ([5]; pH 5, 48 h): >95%
- Stability: % Siloxane Surfactant Remaining ([5]; pH 5, 9 days): 99%
- Stability: % Siloxane Surfactant Remaining ([5]; pH 7, 48 h): >95%
- Stability: % Siloxane Surfactant Remaining ([5]; pH 9, 48 h): >95%
- Surface Tension [2]: 32.7 mN/m
